Source: patent US5585382A, “Polycyclic and heterocyclic chromophores for bis-imide tumoricidals” (The DuPont Merck Pharmaceutical Company, priority 1995, dated 1996)
In brackets after ≈: the same amount, converted by molar mass. Read-outs that look alike come from different tables or passages of the source.

Assays:
[1] = test system: Murine leukemia L1210 cells; assay: In vitro growth inhibition of L1210 cells (MTT, 72 hr); format: cell-based; details: Mus musculus, read-out: L1210 IC50
Method: (§1) The reagents for tissue culture were purchased from GIBCO (Grand Island, N.Y.). 5-Dimethylthiazol-2-yl)-2,5-diphenyl tetrazolium bromide (MTT) was purchased from Sigma Chemical Company (St. Louis, Mo.). All agents were prepared as 2 mg/ml stock solutions in DMSO. MTT was prepared as a 1 mg/ml stock solution in Dulbecco's phosphate buffered saline (PBS). All stocks were stored frozen in the dark at -20° C.
(§2) Clone A human colon cancer cells were isolated from the heterogeneous DLD-1 colon tumor line and maintained as previously described (Dexter, D. L.; Barbosa, J. A.; Calabresi, P. Cancer Research 1979, 39, 1020; Dexter, D. L.; Spremulli, E. M.; Fligiel, A.; Barbosa, J. A.; Vogel, R.; Van Vorhees, A.; Calabresi, P. Am. J. Med. 1981, 71, 949.). Murine leukemia L1210 cells were maintained in RPMI-L medium as described (Chen, S.-F.; Ruben, R. L.; Dexter, D. L. Cancer Research 1986, 46, 5014.). All cell lines were incubated at 37° C. in a humidified atmosphere of 5% CO2 -95% air.
(§3) Exponentially growing L1210 cells (1×10^3), or Clone A cells (8×10^2) in 0.1 ml medium were seeded in a 96-well microtiter plate on day 0. On day one, 0.1 ml aliquots of medium containing graded concentrations of test compounds were added to the cell plates. After incubation at 37° C. in a humidified incubator for 72 hr, the plates containing L1210 cells were centrifuged briefly and 100 μl of the growth medium was removed. Cell cultures were incubated with 50 μl of MTT for 4 h at 37° C. (12). The resulting purple formazan precipitate was solubilized with 200 μl of 0.04 N HCl in isopropyl alcohol. Absorbance was read in a Titertek Multiskan MCC scanning well spectrophotometer (Flow Laboratories) at a test wavelength of 570 nm and a reference wavelength of 630 nm. The absorbances were stored on a floppy disk on an IBM-XT and uploaded onto a VAX computer. IC50 values were determined by a computer program that fit the data to the following equation:
(§4) Y=((Am -Ao)/(1+(X/IC50)^n))+Ao
(§5) where Am =absorbance of the control cells; Ao =absorbance of the cells in the presence of highest compound concentration; Y=observed absorbance; X=compound concentration; IC50 =dose of compound that inhibits the number of population doublings of cells to one half that of the number of population doublings of the control cells; and n equals the slope of the straight portion of the curve.
(§6) The values reported in the table are from at least one experiment performed in eight replicates. If more than one experiment was performed, the number reported is the average of all the trials

[2] = test system: Clone A human colon cancer cells; assay: In vitro growth inhibition of Clone A cells (MTT, 72 hr); format: cell-based; details: read-out: Clone A IC50
Method: as §1, §2, §3, §4, §5, §6

Row | SMILES | IC50 ([1]; L1210, 72 h) [µg/mL] | IC50 ([2]; 72 h) [µg/mL] | IC50 ([1]; L1210 cells, 72 hr, MTT) [µg/mL] | IC50 ([2]; Clone A cells, 72 hr, MTT) [µg/mL]
1 | O=C1c2cc([N+](=O)[O-])cc3c2c(cc2cnccc23)C(=O)N1CCCCNCCCN1C(=O)c2cc([N+](=O)[O-])cc3c2c(cc2cnccc23)C1=O [Example 16, 4-[3-(3-Nitro-7-azaphenanthrene-1,10-dicarboximido)propylamino]-1-(3-nitro-7-azaphenanthrene-1, 10-dicarboximido)butane 2.6-Hydromethanesulfonate] | < 0.01 | 0.002 (≈ 0.00287 µM) | – | –
2 | CS(=O)(=O)O.Cc1cnc2c(c1)cc1c3c(cccc32)C(=O)N(CCCCNCCCN2C(=O)c3cccc4c3c(cc3cc(C)cnc34)C2=O)C1=O [Example 10, 4-[3-(7-Methyl-5-azaphenanthrene-1,10-dicarboximido)propylamino]-1-(7-methyl-5-azaphenanthrene-1, 10-dicarboximido)butane Hydromethanesulfonate] | – | – | 0.588 | 0.346
3 | CS(=O)(=O)O.O=C1c2cccc3c2c(cc2cccc([N+](=O)[O-])c23)C(=O)N1CCCCNCCCN1C(=O)c2cccc3c2c(cc2cccc([N+](=O)[O-])c23)C1=O [Example 51, 4-[3-(5-Nitrophenanthrene-1,10-dicarboximido)propylamino]-1-(5-nitrophenanthrene-1, 10-dicarboximido)butane Hydromethanesulfonate] | 0.205 | 0.747 | – | –
4 | O=C1c2cccc3c2c(c(-c2ccccc2)c2ccccc23)C(=O)N1CCCCNCCCN1C(=O)c2cccc3c2c(c(-c2ccccc2)c2ccccc23)C1=O [Example 48, 4-[3-(9-Phenylphenanthrene-1,10-dicarboximido)propylamino]-1-(9-phenylphenanthrene-1, 10-docarboximido)butane Hydromethanesulfonate] | 0.773 | 1.46 | – | –
5 | CS(=O)(=O)O.CS(=O)(=O)O.C[C@@H](CNCCNC[C@H](C)N1C(=O)c2cccc3c2c(cc2ccc([N+](=O)[O-])cc23)C1=O)N1C(=O)c2cccc3c2c(cc2ccc([N+](=O)[O-])cc23)C1=O [Example 52, (S,S)-1,2-bis-[2-(6-Nitrophenanthrene-1,10-dicarboximido)propylamino]ethane Dihydromethanesulfonate] | 0.082 | 0.044 | – | –
6 | C[C@H](CNCCNC[C@@H](C)N1C(=O)c2cc([N+](=O)[O-])cc3c2c(cc2ccncc23)C1=O)N1C(=O)c2cccc3cc([N+](=O)[O-])cc(c23)C1=O [Example 119, (R,R)-1-[3-Nitro-6-azaphenanthrene-1, 10-dicarboximido)propylamino]-2-[2-(3-nitronaphthalene-1,8-dicarboximido)propylamino]ethane Dihydromethanesulfonate] | 0.044 | 0.003 | – | –
7 | CS(=O)(=O)O.CS(=O)(=O)O.C[C@H](CNCCNC[C@@H](C)N1C(=O)c2cc([N+](=O)[O-])cc3c2c(cc2ncccc23)C1=O)N1C(=O)c2cccc3cc([N+](=O)[O-])cc(c23)C1=O [Example 116, (R,R)-1-[2-(3-Nitro-8-azaphenanthrene-1,10-dicarboximido)propylamino]-2-[2-(3-nitronaphthalene-1,8-dicarboximido)propylamino]ethane Dihydromethanesulfonate] | 0.012 | 0.003 | – | –
8 | CS(=O)(=O)O.O=C1c2cccc3c2c(c(C(F)(F)F)c2ccccc23)C(=O)N1CCCCNCCCN1C(=O)c2cccc3c2c(c(C(F)(F)F)c2ccccc23)C1=O [Example 45, 4-(3-[9-(Trifluoromethyl)phenanthrene-1,10-dicarboximido]propylamino)-1-[9-(trifluoromethyl)phenanthrene-1,10-dicarboximido]butane Hydromethanesulfonate] | 0.3 | 1.05 | – | –
9 | CS(=O)(=O)O.CS(=O)(=O)O.C[C@H](CNCCNC[C@@H](C)N1C(=O)c2cccc3c4c(cc(c23)C1=O)C(=O)c1ccccc1C4=O)N1C(=O)c2cccc3c4c(cc(c23)C1=O)C(=O)c1ccccc1C4=O [Example 101, (R,R)-1,2-bis-[2-(7,12-Dihydro-7,12-dioxobenz[a]anthracene-4,5-dicarboximido)propylamino]ethane Dihydromethanesulfonate] | – | – | 0.105 | 0.05
10 | CS(=O)(=O)O.O=C1c2cccc3c2c(cc2occc23)C(=O)N1CCCCNCCCN1C(=O)c2cccc3c2c(cc2occc23)C1=O [Example 90, 4-[3-(Naphtho[2,1-b]furan-5,6-dicarboximido)propylamino]-1-(naphtho[2,1-b]furan-5,6-dicarboximido)butane Hydromethanesulfonate] | – | – | 0.013 | 0.017
11 | COc1ccc2c(c1)cc1c3c(cccc32)C(=O)N(CCCCNCCCN2C(=O)c3cccc4c3c(cc3cc(OC)ccc34)C2=O)C1=O.CS(=O)(=O)O [Example 54, 4-[3-(7-Methoxyphenanthrene-1,10-dicarboximido)propylamino]-1-(7-methoxyphenanthrene-1,10-dicarboximido)butane Hydromethanesulfonate] | 0.198 | 0.615 | – | –
12 | CS(=O)(=O)O.CS(=O)(=O)O.CS(=O)(=O)O.Nc1cc2c3c(cc4ccccc4c3c1)C(=O)N(CCCCNCCCN1C(=O)c3cc(N)cc4c3c(cc3ccccc34)C1=O)C2=O [Example 53, 4-[3-(3-Aminophenanthrene-1,10-dicarboximido)propylamino]-1-(3-aminophenanthrene-1,10-dicarboximido)butane Trihydromethanesulfonate] | 0.453 | 0.755 | – | –
13 | CS(=O)(=O)O.CS(=O)(=O)O.Cc1nc2cc3c4c(cccc4c2s1)C(=O)N([C@H](C)CNCCNC[C@@H](C)N1C(=O)c2cccc4c2c(cc2nc(C)sc24)C1=O)C3=O [Example 83, (R,R) -1,2-bis-[2-(2-Methylnaphtho[2,1-d]thiazole-5,6-dicarboximido)propylamino]ethane Dihydromethanesulfonate] | – | – | < 0.01 | 0.004
14 | CS(=O)(=O)O.O=C1c2cccc3c2c(cc2cc([N+](=O)[O-])cnc23)C(=O)N1CCCCNCCCN1C(=O)c2cccc3c2c(cc2cc([N+](=O)[O-])cnc23)C1=O [Example 11, 4-[3-(7-Nitro-5-azaphenanthrene-1,10dicarboximido)propylamino]-1-(7-nitro-5-azaphenanthrene-1, 10-dicarboximido)butane Hydromethanesulfonate] | 0.171 | 0.543 | – | –
15 | COc1ccc2cc3c4c(cccc4c2c1)C(=O)N([C@H](C)CNCCNC[C@@H](C)N1C(=O)c2cccc4cc([N+](=O)[O-])cc(c24)C1=O)C3=O [Example 122] | 0.211 (≈ 0.32 µM) | 0.023 (≈ 0.0349 µM) | – | –
16 | CS(=O)(=O)O.O=C1c2cc([N+](=O)[O-])cc3c2c(cc2ccccc23)C(=O)N1CCCCNCCCN1C(=O)c2cc([N+](=O)[O-])cc3c2c(cc2ccccc23)C1=O [Example 50, 4-[3-(3-Nitrophenanthrene-1,10-dicarboximido)propylamino]-1-(3-nitrophenanthrene-1, 10-dicarboximido)butane Hydromethanesulfonate] | 0.126 | 0.032 | – | –
17 | CS(=O)(=O)O.CS(=O)(=O)O.C[C@H](CNCCNC[C@@H](C)N1C(=O)c2cccc3c2c(cc2cccnc23)C1=O)N1C(=O)c2cccc3cc([N+](=O)[O-])cc(c23)C1=O [Example 110, (R,R)-1-[2-(5-Azaphenanthrene-1,10-dicarboximido)propylamino]-2-[2-(3-nitronaphthalene-1,8-dicarboximido)propylamino]ethane Dihydromethanesulfonate] | – | – | 0.183 | 0.006
18 | CS(=O)(=O)O.CS(=O)(=O)O.C[C@H](CNCCNC[C@@H](C)N1C(=O)c2cccc3c2c(cc2cnccc23)C1=O)N1C(=O)c2cccc3cc([N+](=O)[O-])cc(c23)C1=O [Example 113, (R,R)-1-[2-(7-Azaphenanthrene-1,10-dicarboximido)propylamino]-2-[2-(3-nitronaphthalene-1,8-dicarboximido)propylamino]ethane Dihydromethanesulfonate] | – | – | 0.008 | 0.0003
19 | CS(=O)(=O)O.N#Cc1ccc2cc3c4c(cccc4c2c1)C(=O)N(CCCCNCCCN1C(=O)c2cccc4c2c(cc2ccc(C#N)cc24)C1=O)C3=O [Example 49, 4-[3-(6-Cyanophenanthrene-1,10-dicarboximido)propylamino]-1-(6-cyanophenanthrene-1, 10-dicarboximido)butane Hydromethanesulfonate] | 0.026 | 0.007 | – | –
